Columns and labels:
c-KIT D816H kinase = biological target: T1, c-KIT D816H kinase (Homo sapiens, UniProt P10721, D816H); assay: c-KIT D816H Kinase Assay; assay type: biochemical; details: enzymatic assay, ATP 200 µM
T1 construct: The construct contains residues T544-V976 of cKit; GST (N); TEV cleavage site (internal); purchased deCODE Biostructures
Outline: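 Mutant cKit enzyme, expressed as a GST-fusion construct carrying an N-terminal tag and TEV site, was mixed with serially diluted compound to start reactions. Activity tracked via NADH consumption, read continuously at 340 nm over 6 hours at 30 °C.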

c-KIT V654A kinase = biological target: T2, c-KIT V654A kinase (Homo sapiens, UniProt P10721, V654A); assay: c-KIT V654A Kinase Assay; assay type: biochemical; details: enzymatic assay, ATP 200 µM
T2 construct: residues T544-V976 with N-terminal GST fusion; purchased deCODE Biostructures
Outline: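 Kinase activity tracked by coupled NADH consumption, monitored continuously at 340 nm over 6 h at 30 °C after serially diluted compound was mixed in to start inhibition. Enzyme used was a GST-fused, N-terminally tagged cKIT T544–V976 construct with a TEV cleavage site.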

Phospho-KIT (Tyr719) [1] = assay: GIST48 KIT Western Blot; assay type: cell-based; details: GIST48 cells, 4 hours, serum-free medium; read-out: pKIT suppression by western blot analysi GIST48
Outline: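 Phospho-KIT (Tyr719) was immunoblotted on PVDF and imaged in fluorescence mode after ECL Plus, with stripping and reprobing for total KIT. IC50 values were derived from the blot signals.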

c-KIT kinase = c-KIT kinase (Homo sapiens, UniProt P10721); assay: c-KIT kinase Assay; assay type: biochemical; set-up: cKIT residues T544-V976; GST (N); TEV cleavage site (internal); purchased deCODE Biostructures; details: enzymatic assay, ATP 200 µM; read-out: KIT (wt) IC50
Outline: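 This continuous spectrophotometric assay tracked c-KIT kinase turnover through NADH consumption at 340 nm, recorded for 2 hours at 30 °C. The enzyme construct from deCODE Biostructures carried an N-terminal tag, a GST-fusion sequence and a TEV cleavage site. Percent inhibition came from reaction rates over 0 to 1 h relative to a no-compound control, and IC50 values were derived with GraphPad Prism.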

Phospho-KIT (Tyr719) [2] = assay: GIST430 KIT Western Blot; assay type: cell-based; details: GIST430 cells, 4 hours, serum-free medium; read-out: pKIT suppression by western blot analysi GIST430
Outline: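 GIST430 cells were compound-treated in serum-free Ham's F10, then lysed. Phospho-KIT (Tyr719) was measured by western blot with fluorescence-mode ECL, and blots were reprobed for total KIT; IC50 derived from concentration response.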

Phospho-KIT (Tyr719) [3] = biological target: T3, Phospho-KIT (Tyr719) (Homo sapiens, UniProt P10721, K642E); assay: GIST882 KIT Western Blot; assay type: cell-based; details: GIST882 cells, 4 hours, serum-free medium; read-out: pKIT suppression by western blot analysi GIST 882
T3 construct: endogenous in cells; host or cells: GIST882
Description: GIST48, GIST430, and GIST882 cells were obtained from J. Fletcher (Brigham and Women's Hospital, Boston, MA). GIST T1 cells were obtained from B. Rubin (Cleveland Clinic, Cleveland, OH) and Professor Takahiro Taguchi (Kochi Medical School, Nankoku, Kochi, Japan). […] GIST430 cells were grown in Ham's F10 medium supplemented with 15% characterized fetal bovine serum (Invitrogen, Carlsbad, CA), 30 mg/L bovine pituitary extract (BD Biosciences, San Jose, CA), 0.5% Mito+ serum extender (BD Biosciences, San Jose, CA), 1 unit/mL penicillin G, 1 µg/ml streptomycin, and 0.29 mg/mL L-glutamine at 37 °C, 5%CO2, 95% humidity. GIST T1 cells were grown in DMEM medium supplemented with 10% characterized fetal bovine serum (Invitrogen, Carlsbad, CA), 1 unit/mL penicillin G, 1 µg/ml streptomycin, and 0.29 mg/mL L-glutamine at 37 °C, 5% CO2, and 95% humidity.
Two hundred fifty thousand cells were added per well in a 24-well tissue-culture treated plate. […] Medium was aspirated, cells were washed with PBS, and serum-free RPMI1640 medium was added. […] Cells were washed with PBS, then lysed. Cell lysates were separated by SDS-PAGE and transferred to PVDF. Phospho-KIT (Tyr719) was detected using an antibody from Cell Signaling Technology (Beverly, MA), ECL Plus detection reagent (GE Healthcare, Piscataway, NJ) and a Molecular Devices Storm 840 phosphorimager in fluorescence mode. Blots were stripped and probed for total KIT using an antibody from Santa Cruz Biotech (Santa Cruz, CA). IC50 values were calculated using Prism software (Graphpad, San Diego, CA).

T3 sequence (P10721 26-976 K642E): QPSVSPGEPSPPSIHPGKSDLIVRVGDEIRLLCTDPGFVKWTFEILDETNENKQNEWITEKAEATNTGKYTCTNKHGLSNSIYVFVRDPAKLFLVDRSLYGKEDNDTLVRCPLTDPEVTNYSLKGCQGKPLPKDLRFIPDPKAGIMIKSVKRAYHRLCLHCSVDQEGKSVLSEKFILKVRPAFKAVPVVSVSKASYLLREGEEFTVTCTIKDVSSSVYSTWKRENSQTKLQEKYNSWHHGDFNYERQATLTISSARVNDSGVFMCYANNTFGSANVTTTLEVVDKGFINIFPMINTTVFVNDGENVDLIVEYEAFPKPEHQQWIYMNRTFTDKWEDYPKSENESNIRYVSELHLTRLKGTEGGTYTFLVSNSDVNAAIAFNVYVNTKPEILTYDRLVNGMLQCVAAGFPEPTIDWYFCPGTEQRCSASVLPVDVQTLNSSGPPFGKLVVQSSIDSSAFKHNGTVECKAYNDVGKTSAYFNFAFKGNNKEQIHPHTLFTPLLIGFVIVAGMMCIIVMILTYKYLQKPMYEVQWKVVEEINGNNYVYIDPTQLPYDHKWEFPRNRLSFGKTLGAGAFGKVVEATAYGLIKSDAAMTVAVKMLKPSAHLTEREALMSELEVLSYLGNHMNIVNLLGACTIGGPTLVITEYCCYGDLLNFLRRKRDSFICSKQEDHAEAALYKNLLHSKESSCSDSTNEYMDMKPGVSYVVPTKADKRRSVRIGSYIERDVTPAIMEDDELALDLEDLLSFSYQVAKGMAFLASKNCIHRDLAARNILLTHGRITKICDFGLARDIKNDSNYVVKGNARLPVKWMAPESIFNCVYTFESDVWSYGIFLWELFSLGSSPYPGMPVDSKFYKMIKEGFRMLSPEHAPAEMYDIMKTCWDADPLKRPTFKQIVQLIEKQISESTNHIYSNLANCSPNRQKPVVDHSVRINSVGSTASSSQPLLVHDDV
T1 sequence (P10721 544-976 D816H): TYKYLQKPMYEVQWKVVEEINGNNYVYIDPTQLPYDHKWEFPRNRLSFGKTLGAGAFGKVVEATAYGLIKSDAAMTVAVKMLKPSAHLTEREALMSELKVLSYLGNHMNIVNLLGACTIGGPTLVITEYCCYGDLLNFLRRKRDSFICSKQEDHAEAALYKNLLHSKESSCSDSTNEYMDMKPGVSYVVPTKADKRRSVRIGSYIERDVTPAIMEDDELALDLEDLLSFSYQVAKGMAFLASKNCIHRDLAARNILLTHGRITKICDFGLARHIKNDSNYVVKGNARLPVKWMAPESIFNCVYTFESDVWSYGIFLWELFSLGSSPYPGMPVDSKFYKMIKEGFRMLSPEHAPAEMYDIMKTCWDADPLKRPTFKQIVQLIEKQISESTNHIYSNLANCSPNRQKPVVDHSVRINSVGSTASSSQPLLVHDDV
c-KIT kinase, sequence (P10721 544-976): as the sequence (P10721 544-976 D816H) above, with H273D counted along it
T2 sequence (P10721 544-976 V654A): as the sequence (P10721 544-976 D816H) above, with V111A, H273D counted along it

| SMILES | IC50 (c-KIT D816H kinase) [nM] | IC50 (c-KIT V654A kinase) [nM] | IC50 (Phospho-KIT (Tyr719) [1]) [nM] | IC50 (c-KIT kinase) [nM] | IC50 (Phospho-KIT (Tyr719) [2]) [nM] | IC50 (Phospho-KIT (Tyr719) [3]) [nM] |
| --- | --- | --- | --- | --- | --- | --- |
| CCn1c(=O)c(-c2cc(NC(=O)Nc3cccc(F)c3F)c(F)cc2Cl)cc2cnc(NC)cc21 [Example 4, 1-(4-chloro-5-(1-ethyl-7-(methylamino)-2-oxo-1,2-dihydro-1,6-naphthyridin-3-yl)-2-fluorophenyl)-3-(2,3-difluorophenyl)urea] | < 10 | < 10 | 10 to 100 | < 10 | 10 to 100 | < 10 |
| CCn1c(=O)c(-c2cc(NC(=O)Nc3cc(F)ccc3F)c(F)cc2C)cc2cnc(NC)cc21 [Example 61, 1-(2,5-difluorophenyl)-3-(5-(1-ethyl-7-(methylamino)-2-oxo-1,2-dihydro-1,6-naphthyridin-3-yl)-2-fluoro-4-methylphenyl)urea] | 100 to 1000 | 10 to 100 | > 1000 | < 10 | 10 to 100 |  |
| CCn1c(=O)c(-c2cc(NC(=O)Nc3ccccc3)c(F)cc2Cl)cc2cnc(NC)cc21 [Example 3, 1-(4-chloro-5-(1-ethyl-7-(methylamino)-2-oxo-1,2-dihydro-1,6-naphthyridin-3-yl)-2-fluorophenyl)-3-phenylurea] | < 10 | < 10 | 100 to 1000 | < 10 |  | 10 to 100 |
| CCn1c(=O)c(-c2cc(NC(=O)Nc3ccccc3)c(F)cc2Cl)cc2cnc(NCCOC)cc21 [Example 27, 1-(4-chloro-5-(1-ethyl-7-(2-methoxyethylamino)-2-oxo-1,2-dihydro-1,6-naphthyridin-3-yl)-2-fluorophenyl)-3-phenylurea] | 10 to 100 | 10 to 100 | 10 to 100 | < 10 | 10 to 100 | 100 to 1000 |
| CCn1c(=O)c(-c2cc(NC(=O)Nc3ccccc3)c(F)cc2Cl)cc2cnc(NC(C)=O)cc21 [Example 54, 1-(5-(7-acetamido-1-ethyl-2-oxo-1,2-dihydro-1,6-naphthyridin-3-yl)-4-chloro-2-fluorophenyl)-3-phenylurea] | < 10 | 10 to 100 | 10 to 100 | < 10 | 10 to 100 | 10 to 100 |
| CCn1c(=O)c(-c2cc(NC(=O)Nc3ccc(F)c(CN4CCN(C)CC4)c3)c(F)cc2Cl)cc2cnc(NC)cc21 [Example 87, 1-(4-chloro-5-(1-ethyl-7-(methylamino)-2-oxo-1,2-dihydro-1,6-naphthyridin-3-yl)-2-fluorophenyl)-3-(4-fluoro-3-((4-methylpiperazin-1-yl)methyl)phenyl)urea] | 10 to 100 | 100 to 1000 | 10 to 100 | < 10 | 100 to 1000 | 100 to 1000 |
| CNc1cc2c(cn1)cc(-c1cc(NC(=O)Nc3cccc(F)c3)c(F)cc1Cl)c(=O)n2C(C)C [Example 77, 1-(4-chloro-2-fluoro-5-(1-isopropyl-7-(methylamino)-2-oxo-1,2-dihydro-1,6-naphthyridin-3-yl)phenyl)-3-(3-fluorophenyl)urea] | 10 to 100 | 10 to 100 | 10 to 100 | < 10 | 10 to 100 | 10 to 100 |
| CCn1c(=O)c(-c2cc(NC(=O)Nc3cc(F)cc(F)c3)c(F)cc2Cl)cc2cnc(NC(C)=O)cc21 [Example 67, N-(3-(2-chloro-5-(3-(3,5-difluorophenyl)ureido)-4-fluorophenyl)-1-ethyl-2-oxo-1,2-dihydro-1,6-naphthyridin-7-yl)acetamide] | < 10 | 10 to 100 | < 10 | 10 to 100 | < 10 | 10 to 100 |
| CCn1c(=O)c(-c2cc(NC(=O)Nc3ccccc3F)c(F)cc2Cl)cc2cnc(NC)cc21 [Example 25, 1-[4-chloro-5-(1-ethyl-7-methylamino-2-oxo-1,2-dihydro-[1,6]naphthyridin-3-yl)-2-fluoro-phenyl]-3-(2-fluoro-phenyl)-urea] | 10 to 100 | < 10 | 10 to 100 | < 10 | 10 to 100 | 10 to 100 |
| CCn1c(=O)c(-c2cc(NC(=O)Nc3ccccc3)c(F)cc2Br)cc2cnc(NCCOC)cc21 [Example 51, 1-(4-bromo-5-(1-ethyl-7-(2-methoxyethylamino)-2-oxo-1,2-dihydro-1,6-naphthyridin-3-yl)-2-fluorophenyl)-3-phenylurea] |  | 10 to 100 | 100 to 1000 | 10 to 100 | 10 to 100 | 10 to 100 |
| CCn1c(=O)c(-c2cc(NC(=O)Nc3ccccc3)c(F)cc2Cl)cc2cnc(NC(=O)N3CC(N(C)C)C3)cc21 [Example 102, N-(3-(2-chloro-4-fluoro-5-(3-phenylureido)phenyl)-1-ethyl-2-oxo-1,2-dihydro-1,6-naphthyridin-7-yl)-3-(dimethylamino)azetidine-1-carboxamide] | 10 to 100 | 10 to 100 | 10 to 100 | < 10 | 10 to 100 |  |

Next, values leading:

| IC50 (c-KIT D816H kinase) [nM] | IC50 (c-KIT V654A kinase) [nM] | IC50 (Phospho-KIT (Tyr719) [1]) [nM] | IC50 (c-KIT kinase) [nM] | IC50 (Phospho-KIT (Tyr719) [2]) [nM] | IC50 (Phospho-KIT (Tyr719) [3]) [nM] | SMILES |
| --- | --- | --- | --- | --- | --- | --- |
| < 10 | < 10 | 100 to 1000 | < 10 | 10 to 100 | 100 to 1000 | CCn1c(=O)c(-c2cc(NC(=O)Nc3cccc(F)c3)c(F)cc2C)cc2cnc(N)cc21 [Example 58, 1-(5-(7-amino-1-ethyl-2-oxo-1,2-dihydro-1,6-naphthyridin-3-yl)-2-fluoro-4-methylphenyl)-3-(3-fluorophenyl)urea] |
| < 10 | 10 to 100 | 10 to 100 | < 10 | < 10 | 10 to 100 | CCn1c(=O)c(-c2cc(NC(=O)Nc3cccc(F)c3)c(F)cc2C)cc2cnc(NC)cc21 [Example 44, 1-(5-(1-ethyl-7-(methylamino)-2-oxo-1,2-dihydro-1,6-naphthyridin-3-yl)-2-fluoro-4-methylphenyl)-3-(3-fluorophenyl)urea] |
| 10 to 100 | 10 to 100 | 100 to 1000 | < 10 | < 10 | 10 to 100 | CCn1c(=O)c(-c2cc(NC(=O)Nc3cccc(F)c3)c(F)cc2Br)cc2cnc(NC)cc21 [Example 50, 1-(4-bromo-5-(1-ethyl-7-(methylamino)-2-oxo-1,2-dihydro-1,6-naphthyridin-3-yl)-2-fluorophenyl)-3-(3-fluorophenyl)urea] |
| 10 to 100 | < 10 | 100 to 1000 | < 10 |  | 10 to 100 | CCn1c(=O)c(-c2cc(NC(=O)Nc3ccccc3)c(F)cc2C)cc2cnc(NC)cc21 [Example 23, 1-(5-(1-ethyl-7-(methylamino)-2-oxo-1,2-dihydro-1,6-naphthyridin-3-yl)-2-fluoro-4-methylphenyl)-3-phenylurea] |
| 10 to 100 | 10 to 100 | > 1000 | < 10 | 10 to 100 |  | CCn1c(=O)c(-c2cc(NC(=O)Nc3cc(F)cc(F)c3)c(F)cc2C)cc2cnc(NC)cc21 [Example 60, 1-(3,5-difluorophenyl)-3-(5-(1-ethyl-7-(methylamino)-2-oxo-1,2-dihydro-1,6-naphthyridin-3-yl)-2-fluoro-4-methylphenyl)urea] |

From patent publication EP3722296B1, “DIHYDRONAPHTHYRIDINES AND RELATED COMPOUNDS USEFUL AS KINASE INHIBITORS FOR THE TREATMENT OF PROLIFERATIVE DISEASES” (Deciphera Pharmaceuticals, LLC, priority 2012, dated 2013)
